Patent publication US20230173098A1, “NANOPARTICLE COMPLEX FOR ORAL ADMINISTRATION AND USES THEREOF” (IUCF-HYU (Industry-University Cooperation Foundation …, priority 2021, published 2023)

How the values were obtained:
[1] = Hydrophobic assay (water/octanol phase transition, absorbance at 400 nm and 671 nm); assay type: physicochemical; settings: dissolved in DW, octanol added
[2] = tested on: brain tumor (U87MG) cells; test: Phototherapy of brain tumor cells: viability, Annexin V/PI apoptosis, DCFH-DA ROS; assay type: cell-based, human; settings: PDT+PTT, 2.5 minutes each
Method: Cell viability was measured with an EZ-Cytox kit.
Meanwhile, the intracellular ROS generation by laser irradiation was measured using the fluorescent probe DCFH-DA according to the manufacturer's instructions. Annexin V-DY-634/PI apoptosis was used to evaluate apoptosis. That is, brain tumor (U87MG) cells were suspended in 400 μL binding buffer, and then stained with Annexin V-DY-634 (5 μL) at 2 to 8° C. for 15 minutes. Next, PI (5 μL) was added and the cells were incubated for 5 min. In this case, brain tumor (U87MG) cells were analyzed using FACS.

[3] = tested on: Caco-2 cell monolayer; assay type: in vitro ADME, human
Method: Specifically, small intestine […] cells (Caco-2) were inoculated onto a Transwell insert with a diameter of 6.5 mm and a pore size of […] (seeding density: 2×10^4 cells/insert; Corning, Inc., Corning, N.Y., USA).
After the Caco-2 were incubated for approximately 2 to 3 weeks in a CO2 incubator, trans epithelial electrical resistance (TEER) was measured using a voltmeter (EVOM^2; World Precision Instruments, Sarasota, Fla., USA) to confirm tight junctions. In this case, the TEER value […] was used for the assay. […] During the treatment, TEER values were measured at each designated time, and the results are illustrated in FIG. 18.
Pretreated-Lf/Ce6-AuNP-Lf was used to examine passive transport excluding lactoferrin receptor (LfR)-mediated transport.
Referring to this, Lf pretreatment (pretreated-Lf) was performed to saturate LfR expressed in the Caco-2 cell monolayer, and two hours after Lf pretreatment (pretreated-Lf), the medium was exchanged with a Ce6-AuNP-Lf-containing medium.

[4] = Surface charge measurement (Zetasizer Nano ZS); assay type: physicochemical; settings: mean±SEM, n=3, in mV (unit assumed)
[5] = Photobleaching of Ce6 fluorescence under PDT laser (671 nm); assay type: physicochemical; settings: 10 minutes PDT laser 671 nm; Ce6 equivalent 2.5 μM in ethanol
Method: In this case, each sample (Ce6 equivalent concentration of 2.5 μM) was dissolved in ethanol and irradiated with a PDT laser (MRL-III-671, 671±1 nm, China) for 10 minutes, and then the photobleaching of Ce6 fluorescence (λ excitation/λ emission=400 nm/671 nm) of each sample was measured according to laser irradiation time, and the results are illustrated in FIG. 10.

[6] = tested on: brain tumor cells (U87MG); test: Uptake into brain tumor cells (confocal, FACS); assay type: cell-based, human; settings: Ce6 equivalent 2.5 μM, 18 hours
Method: Next, DAPI mounting medium (Vector Laboratories, Inc., Burlingame, Calif., USA) was used and the intracellular Ce6 fluorescence was observed under a confocal microscope (TCS SP5, Leica, Germany).
Meanwhile, flow cytometry (FACS Calibur™; BD Biosciences, Franklin Lakes, N.J.) was used to quantify the intracellular Ce6 fluorescence. […] After washing three times with PBS, the cells were detached with trypsin/EDTA, centrifuged for 3 minutes at 1000 rpm, and then analyzed with FACS.

hydrophobicity [1]: hydrophobic | transmittance / amount transported across the barrier [3]: about 47.6% | surface charge [4]: −9.4±4.3
Substance: Chlorin e6 [Ce6]
apoptotic cell population (Annexin-V+/PI+) [2]: 22.0% | Ce6 fluorescence after PDT laser irradiation (photobleaching) [5]: 57.0±5.6% | amount of uptake into the cells (FACS, intracellular Ce6 fluorescence) [6]: 43.6±2.2
